Among the test systems are OVCAR-4; UO-31; NCI-H23; SF-295; SNB-75; Malme-3M; OVCAR-8; OVCAR-3; HCC 2998; LOX IMVI; NCI-H522; NCI-H226; RPMI-8226; UACC-62; SR; TK-10; 786-0.
What all share (experiment): NCI anticancer screen, dose series, 48 h

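Interpolation was linear, between the two tested concentrations surrounding the appropriate level; five concentrations were tested over 48 hours in 96-well plates. Abbreviation: GI50, concentration required for 50% inhibition of growth.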 Active and inactive are the calls of the source. Rule as the data show it: active = GI50 up to about 1.1 µM and inactive = higher.

Here are results for 14 compounds from ChEMBL document CHEMBL1201862, “PubChem BioAssay data set” (2004).

Consider `CN(C)CCNC(=O)c1cccc2ccc(-c3ccc(Br)cc3)nc12`, for which the GI50 in the test with OVCAR-4 is 2.76 µM (inactive); in the test on UO-31, 1.76 µM (inactive); with NCI-H23 it was 3.47 µM (inactive); in the test on SF-295, 3.76 µM (inactive); in the test with SNB-75 it was 3.27 µM (inactive); in the test with Malme-3M, 2.55 µM (inactive). Also, the GI50 in the test with OVCAR-8 was 1.55 µM (inactive); in the test on OVCAR-3 it was 3.27 µM (inactive); in the test on HCC 2998, 1.85 µM (inactive); in the test on LOX IMVI, 1.64 µM (inactive); in the test on NCI-H522, 1.6 µM (inactive); in the test with NCI-H226, 1.89 µM (inactive). Further, the GI50 in the test with RPMI-8226 is 1.29 µM (inactive); in the test with UACC-62 it was 1.8 µM (inactive).
In the case of `O=C1OC2C(O)COC2(O)C1(O)Cc1c[nH]c2ccccc12.O=C1OC2C(O)COC2(OCc2c[nH]c3ccccc23)C1O` (stereo unspecified), the GI50 in the test on OVCAR-4, in the test on UO-31, with NCI-H23, in the test on SF-295, with SNB-75 and with Malme-3M was > 100 µM (inactive) throughout. Besides, the GI50 in the test on SR, with OVCAR-8, with OVCAR-3, in the test with LOX IMVI, in the test with NCI-H522 and in the test on NCI-H226 was > 100 µM (inactive) in each case. Also, the GI50 in the test with TK-10, in the test with RPMI-8226, in the test with UACC-62 and with 786-0 was > 100 µM (inactive) each time.
As for `CC1=C2C=CC(=O)C[C@@]2(C)CCC1`, the GI50 in the test on OVCAR-4 was > 100 µM (inactive); with UO-31 it was > 100 µM (inactive); with NCI-H23, > 100 µM (inactive); in the test with SF-295, > 100 µM (inactive); with SNB-75, 69.2 µM (inactive); in the test with Malme-3M, > 100 µM (inactive). Moreover, the GI50 in the test on OVCAR-8, with OVCAR-3, in the test with HCC 2998, in the test with LOX IMVI, in the test on NCI-H522 and in the test with TK-10 was > 100 µM (inactive) each time. For the same compound, the GI50 with RPMI-8226, with UACC-62 and in the test with 786-0 was > 100 µM (inactive) each time.
Turning to `Cc1nc2ccccc2c(=O)n1/N=C(\N=N\c1ccccc1Cl)c1ccccc1Cl`, the GI50 in the test on UO-31 is 36.1 µM (inactive); in the test with NCI-H23, 34 µM (inactive); in the test with OVCAR-8, > 100 µM (inactive); in the test with LOX IMVI, 86.5 µM (inactive); with NCI-H522, 22.9 µM (inactive); in the test with TK-10, 48 µM (inactive). The GI50 with RPMI-8226 was 30.1 µM (inactive); with UACC-62, 58.9 µM (inactive); in the test on 786-0, 48 µM (inactive).
Consider `CCCN1CN(C(C(=O)N[C@@H]2C(=O)N3C(C(=O)O)=C(C)CSC23)c2ccccc2)CSC1=S` (stereo partly specified), for which the GI50 in the test with OVCAR-4, in the test on UO-31, in the test on NCI-H23, with SF-295, with SNB-75 and in the test on Malme-3M was > 100 µM (inactive) each time. Further, the GI50 with OVCAR-8 was > 100 µM (inactive); with OVCAR-3, 68.1 µM (inactive); in the test on LOX IMVI, 47.4 µM (inactive); in the test on NCI-H522, 23 µM (inactive); with TK-10 it was > 100 µM (inactive); with RPMI-8226, 40.9 µM (inactive). Also, the GI50 in the test with UACC-62 and with 786-0 was > 100 µM (inactive) in each case.
Consider `CCCCC(C)/C=C/C(O)=C1\C(=O)O/C(=C\C(=O)O)C1=O` (stereo unspecified), for which the GI50 in the test on OVCAR-4, in the test on UO-31, with NCI-H23, with SF-295, with SNB-75 and with Malme-3M was > 100 µM (inactive) throughout. In addition, the GI50 in the test with SR, with OVCAR-8, in the test on OVCAR-3, with LOX IMVI, in the test with NCI-H226 and in the test on TK-10 was > 100 µM (inactive) in each case. Moreover, the GI50 in the test on RPMI-8226, in the test on UACC-62 and in the test with 786-0 was > 100 µM (inactive) throughout.
Turning to `COc1ccc2[nH]c3c(C)c4cc[n+](COC(=O)c5ccccc5)cc4c(C)c3c2c1`, the GI50 in the test on OVCAR-4 is 0.168 µM (active); with UO-31, 1.76 µM (inactive); in the test with NCI-H23, 0.428 µM (active); in the test with SF-295, 0.184 µM (active); with SNB-75, 0.703 µM (active); in the test with Malme-3M it was 1.43 µM (inactive). Also, the GI50 in the test with SR was 0.0313 µM (active); with OVCAR-8, 0.0851 µM (active); with OVCAR-3, 1.48 µM (inactive); in the test on LOX IMVI it was 0.21 µM (active); in the test on NCI-H522, 0.391 µM (active); with TK-10, 0.55 µM (active). In addition, the GI50 in the test on RPMI-8226 is 0.144 µM (active); with UACC-62, 1.09 µM (active); in the test on 786-0 it was 0.138 µM (active).
In the case of `O=c1c2ccccc2nc(-c2ccccc2)n1NC(=S)Nc1ccccc1`, the GI50 with OVCAR-4 was > 100 µM (inactive); in the test on UO-31, 81.7 µM (inactive); in the test with NCI-H23 it was > 100 µM (inactive); in the test with SF-295, > 100 µM (inactive); with SNB-75, 38.3 µM (inactive); in the test on Malme-3M, > 100 µM (inactive). Also, the GI50 was > 100 µM (inactive) with SR; > 100 µM (inactive) with OVCAR-8; 91 µM (inactive) with LOX IMVI; > 100 µM (inactive) in the test with NCI-H522; > 100 µM (inactive) with NCI-H226; > 100 µM (inactive) with TK-10. Further, the GI50 in the test with RPMI-8226, with UACC-62 and in the test with 786-0 was > 100 µM (inactive) in each case.
Take `O=c1c2ccccc2nc(-c2ccccc2Cl)n1NCC1(O)OCC(O)C(O)C1O` (stereo unspecified): the GI50 is > 100 µM (inactive) in the test on OVCAR-4; > 100 µM (inactive) in the test on UO-31; > 100 µM (inactive) in the test on NCI-H23; > 100 µM (inactive) in the test with SF-295; 62.2 µM (inactive) in the test with SNB-75; > 100 µM (inactive) with Malme-3M. The GI50 in the test on SR, with OVCAR-8, in the test on OVCAR-3, with LOX IMVI, in the test on NCI-H522 and with TK-10 was > 100 µM (inactive) each time. Besides, the GI50 in the test with RPMI-8226, in the test with UACC-62 and with 786-0 was > 100 µM (inactive) throughout.
For the compound `CC1SC2=NC3=C(c4ccccc4C3=O)C(c3ccc(F)cc3)N2C1=O` (stereo unspecified), the GI50 was 42.5 µM (inactive) with OVCAR-4; 38.9 µM (inactive) in the test with UO-31; > 100 µM (inactive) in the test with NCI-H23; > 100 µM (inactive) with SF-295; 35.6 µM (inactive) in the test on SNB-75; > 100 µM (inactive) in the test with Malme-3M. In addition, the GI50 in the test with OVCAR-8 is > 100 µM (inactive); with OVCAR-3 it was > 100 µM (inactive); with HCC 2998, > 100 µM (inactive); with NCI-H522, 26.5 µM (inactive); in the test with NCI-H226 it was 38.5 µM (inactive); in the test with TK-10, > 100 µM (inactive). For the same compound, the GI50 in the test with RPMI-8226 is 65.3 µM (inactive); in the test on UACC-62 it was 64.1 µM (inactive); in the test with 786-0, > 100 µM (inactive).
For `COc1ccc(Nc2nc(C#N)c(N)s2)cc1`, the GI50 with OVCAR-4 was 83.2 µM (inactive); in the test with UO-31, 40.8 µM (inactive); with NCI-H23, 22.5 µM (inactive); with SF-295, 29.2 µM (inactive); in the test with SNB-75 it was > 100 µM (inactive); in the test on Malme-3M, 91.2 µM (inactive). The GI50 was 78.5 µM (inactive) in the test with OVCAR-8; > 100 µM (inactive) in the test with OVCAR-3; > 10 µM (inactive) in the test on HCC 2998; 21.4 µM (inactive) with LOX IMVI; 22.8 µM (inactive) with NCI-H522; > 100 µM (inactive) with NCI-H226. The GI50 with TK-10 is 38.2 µM (inactive); in the test on RPMI-8226 it was 18.8 µM (inactive); in the test with UACC-62, 23.1 µM (inactive); in the test on 786-0, 64 µM (inactive).
Turning to `O=C(O)NC(c1ccccc1)C(NC(=O)c1ccccc1)c1ccccc1` (stereo unspecified), the GI50 in the test on OVCAR-4, in the test with NCI-H23, with SF-295, with SNB-75, with Malme-3M and in the test on SR was > 100 µM (inactive) in each case. Also, the GI50 was > 100 µM (inactive) in the test with OVCAR-8; > 100 µM (inactive) with OVCAR-3; 61.8 µM (inactive) in the test with LOX IMVI; > 100 µM (inactive) in the test on TK-10; > 100 µM (inactive) in the test on RPMI-8226; > 100 µM (inactive) with UACC-62. Moreover, in the test on 786-0, the GI50 is > 100 µM (inactive).
Consider `OC12c3ccccc3C1CCCCCCCCCC21OCCO1` (stereo unspecified), for which the GI50 with OVCAR-4, in the test with UO-31, in the test with NCI-H23, with SF-295, with SNB-75 and with Malme-3M was > 100 µM (inactive) throughout. The GI50 with OVCAR-8, in the test on OVCAR-3, with HCC 2998, in the test with LOX IMVI, with NCI-H522 and in the test with NCI-H226 was > 100 µM (inactive) each time. Further, the GI50 in the test with TK-10, in the test with RPMI-8226, in the test on UACC-62 and with 786-0 was > 100 µM (inactive) throughout.
Turning to `CCOC(=O)C(C(=O)OCC)P(=S)(S)c1ccccc1` (stereo unspecified), the GI50 in the test with OVCAR-4, with UO-31, in the test on NCI-H23, in the test with SF-295, with Malme-3M and in the test on SR was > 100 µM (inactive) in each case. Also, the GI50 with OVCAR-8, in the test with LOX IMVI, in the test on NCI-H522, in the test on NCI-H226, in the test on TK-10 and with UACC-62 was > 100 µM (inactive) each time. Moreover, the GI50 in the test with 786-0 was > 100 µM (inactive).
